Where no end group is shown, it is not given here.
Assays:
various cell lines [1] = type: cell-based; conditions: data not shown
Method: (§1) FIG. 4 Lack of toxicity and immunogenicity of hAP10 and hAP10DR. (A) The indicated cells were exposed to increasing concentrations of hAP10 or hAP10DR for 20 h. Viability was then assessed by an MTT assay. Data are means±s.e.m. (n=3). (B) Necrotic cell death was monitored by lactate dehydrogenase (LDH) release from cells into the culture medium. The obtained values were normalized to those of the maximum LDH released (completely lysed) control. Data are means±s.e.m. (n=3). […] Mice red blood cells were incubated with 30 μM of hAP10 or hAP10DR. Released hemoglobin was detected by densitometry at 540 nm. Hemoglobin release by cells treated with 1% Triton X-100 was used as 100% lysis control. (D) Levels of IL-6 secretion from RAW 264.7 cells exposed to 10 μM of hAP10 or hAP10DR or LPS (1 μg/ml) for 24 h. Data are means±s.e.m. (n=3).
(§2) Cells survival was assessed with the CellTiter 96® Aqueous One Solution Cell Proliferation Assay kit (Promega, Madison, Wis.). Necrotic plasma membrane permeabilization was assessed by lactate dehydrogenase (LDH) leakage in the culture medium with the CytoTox 96® Non-Radioactive Cytotoxicity Assay kit (Promega, Madison, Wis.).

various cell lines [2] = test: Lactate dehydrogenase (LDH) release assay of the shuttle peptides; type: cell-based
Method: as §1, §2

Mice red blood cells = test: Hemolysis assay; type: cell-based; conditions: 30 μM, 37° C., 1 h; 1% Triton X-100 = 100% lysis
Method: as §1
Mice blood was centrifuged at 2000 rpm for 10 min. Red blood cell pellets were washed five times with PBS and resuspended in normal saline. For each assay, 1×10^7 red blood cells were incubated with or without peptide (30 μM) in normal saline at 37° C. for 1 h. The samples were then centrifuged and the absorbance of the supernatant was measured at 540 nm. To determine the percentage of lysis, absorbance readings were normalized to lysis with 1% Triton X-100.

non T-cells (CD3−) = type: cell-based, human
Method: (§3) FIG. 7 RT33 and RT33DR specifically induce primary Sézary cells death. Sézary patients' PBMC were incubated with increasing concentrations of the indicated peptides for 4 h at 37° C. Cells were then analyzed by flow cytometry following labeling with anti-TCRVβ-FITC, -CD4-PE, -CD3-PE-Cy7 mAbs and 7-AAD. Data are shown as the means±s.e.m. of the percentage of 7-AAD+apoptotic cells within the following populations: malignant (CD3^+CD4^+TCR-V β^+) and non-malignant (CD3^+CD4^+TCR-Vβ^−) CD4+T-cells and non T-cells (CD3^−), derived from three different patients.
(§4) PBMC exposed or not to RT33 or RT33DR were processed for flow cytometry to assess cell death. Cells were labelled with a mix of anti-TCR-Vβ-FITC, -CD3-PE and -CD4-PECy7 mAbs (Beckman Coulter). Detection of apoptotic cells was performed using 7AAD (BD Biosciences). Cells were analyzed on a CytoFlex cytometer (Beckman Coulter) and data treated with FlowJo software.

[3] = test system: non-malignant (CD3+CD4+TCR-Vβ−) CD4+ T-cells; type: cell-based, human
Method: as §3, §4

[4] = test system: RAW 264.7 murine macrophages; test: Immunogenicity assay: IL-6 secretion (ELISA); type: cell-based; conditions: 10 μM peptide or LPS 1 μg/ml, 24 h
Method: as §1
RAW 264.7 murine macrophages were seeded (1×10^4 cells/cm^2) in a 24-well plate and allowed to grow for 24 h. Then, cells were left untreated or exposed to the hAP10 or hAP10DR peptides (10 μM) or to LPS (E. Coli O111:b4, 1 μg/ml) as a positive control for 24 h. Levels of IL-6 in the supernatants were analyzed using an Mouse IL-6 Quantikine ELISA Kit (R&D system).

[5] = test system: HUT78 Sézary cell line xenograft tumors; test: Xenograft tumor model of Sézary syndrome; type: in vivo; conditions: systemic administration, single agent
Method: FIG. 8 RT33 and RT33DR inhibit tumor growth in vivo in a mouse model for the Sézary syndrome. (A) Mice were engrafted subcutaneously with HUT78 Sézary cell line. Animals with preexisting tumors were treated daily with i.p. injections of RT33 or RT33DRM in normal saline (5 mg/kg) or normal saline as control. Tumors were calipered throughout the study and data were plotted as means±s.e.m. (n=7 mice per group). p<0.005 relative to control. Subsequently, tumors were excised, stripped of non-tumor tissue and tumors volumes were calculated. (B) Representative pictures of H&E staining of tumors treated with RT33, RT33DRM, or normal saline. The scale bar represents 500 μm.
Animal experiments were approved by The University Board Ethics Committee for Experimental Animal Studies (#2303.01). Xenograft tumors were obtained by subcutaneous injection of 10^6 HUT78 cells in the right flank of 8-week-old female NOD-SCID-gamma (NSG) mice, bred and housed under pathogen-free conditions at our animal facility (IUH, Saint Louis Hospital, Paris, France). Treatment started after randomization when tumors were visible and consisted of daily intraperitoneal (i.p.) injection of normal saline or RT33 or RT33DR in normal saline (n=5 per group). Tumor volume was measured every other day and calculated as: long axis X short axis^2 ×0.5. […]

HUT78 = test: Cell viability (MTT) after RT33 / RT33DR; type: cell-based; conditions: 50 μM zVAD-fmk, 20 h
Method: (§5) FIG. 6 RT33 and RT33DR induces cancer cells, but not normal cells, death. (A) Amino-acid sequence of RT33 and RT3DR. hAP10 and hAP10DR sequences are in bold. (B) The indicated cells were exposed to increasing concentrations of RT33 or RT3DR for 20 h. Viability was then assessed by an MTT assay. Data are means±s.e.m. (n=3). (C) HUT78 cells were exposed to increasing concentrations of RT33 or RT3DR for 20 h in the presence and absence of 50 μM zVAD-fmk or 50 μM Necrostatin-1 (Nec-1). Viability was then assessed by an MTT assay. Data are means±s.e.m. (n=3). (D) HUT78 cells were exposed to 20 μM of RT33 or RT33DR for 3 h. Necrotic cell death was monitored by lactate dehydrogenase (LDH) as in FIG. 4 (B). Data are means±s.e.m. (n=3). (E) Ultrastructural analysis of HUT78 cells treated with 15 μM of hAP10 or hAP10DR for 1 h. (F) Structural prediction of RT33 and RT33DR. The segments corresponding to the hAP10 and hAP10DR moieties are in light grey. (G) Cancerous C8161 cells or non-cancerous MRC-5 cells were exposed to FITC-labelled RT33 or RT33DR for 1 h. Cels were then examined by fluorescence microscopy.
as §2

MRC-5 = test: Cell viability (MTT) after RT33 / RT33DR; type: cell-based; conditions: increasing concentrations, 20 h
Method: as §5, §2

HaCat = test: Cell viability (MTT) after RT33 / RT33DR; type: cell-based; conditions: increasing concentrations, 20 h
Method: as §5, §2

U2OS cells = test: Live cell fluorescence microscopy of FITC-labelled peptides; type: cell-based; conditions: 5 μM FITC-labelled peptide, 1 h
Method: FIG. 2 Cellular uptake of hAP10 and hAP10DR. (A) HUT78 cells were incubated with 5 μM of FITC-labelled hAP10 and hAP10DR or penetratin and TAT as controls for 1 h in complete medium. Cells were then washed with PBS, incubated in trypsin-EDTA solution (0.01% trypsin) at 37° C. for 10 min, resuspended in PBS and subjected to flow cytometry (right). Left: Bar diagram representing the uptake of the FITC-labelled peptides as mean cellular fluorescence from the flow cytometry analysis of live cells positive for FITC. Data are means±s.e.m. (n=3). (B) Fluorescence quantification of FITC-labelled hAP10 and hAP10DR uptaken in human B lymphocytes. Cells were incubated with 5 μM of FITC-labelled hAP10 and hAP10DR or penetratin and TAT as controls for 1 h in complete medium, washed with PBS and the fluorescence of the cell lysis measured as described in Material and Methods. Data are means±s.e.m. (n=3). (C) Intracellular distribution of FITC-labelled hAP10 and hAP10DR in U2OS cells. U2OS cells grown on coverslips were incubated with 5 μM of FITC-labelled hAP10 and hAP10DR or penetratin and TAT as controls for 1 h in complete medium, washed trice with PBS and live cells were imaged using fluorescence microscopy. […] Following incubation, the cells were washed three times in PBS and imaged using a Zeiss Axiovert 200 M inverted fluorescence microscope.

Substance: AAC-11 specific portion: the AAC-11 specific portion (residues 377-399) alone, without shuttle (LQYFARGLQVYIRQLRLALQGKT; UniProt Q9BZZ5 377-399, looked up, fragment)
- cell viability, AAC-11 portion without shuttle (various cell lines [1]): nor the AAC-11 specific portion alone (not shown) decreased cell viability

Substance: RSRSRDRRRK [hAP10, RSRSRDRRRK]
- LDH activity release in the culture medium (membrane disturbance) (various cell lines [2]): did not induce membrane disturbance
- hemolytic activity (Mice red blood cells): neither hAP10 nor hAP10DR exhibited hemolytic activity
- cell viability / cell death of non-T cell population (non T-cells (CD3−)): did not induce cell death
- cell viability / cell death of non-tumoral CD4+ T-cells [3]: did not induce cell death
- secreted IL-6 [4]: no significant IL-6 release was detected

Substance: RSRSRDRRRKLQYFARGLQVYIRQLRLALQGKT [RT33]
- tolerability in vivo [5]: well tolerated in vivo
- cell viability / cell death of non-T cell population (non T-cells (CD3−)): neither peptide decreased cell viability
- cell viability / cell death of non-tumoral CD4+ T-cells [3]: neither peptide decreased cell viability
- cytotoxicity in presence of pan-caspase inhibitor zVAD-fmk (HUT78): did not block
- cell viability of normal cells (MRC-5): sparing the normal cells tested
- cell viability of normal cells (HaCat): sparing the normal cells tested

Substance: RSRSRRRRRK [hAP10DR, RSRSRRRRRK]
- LDH activity release in the culture medium (membrane disturbance) (various cell lines [2]): did not induce membrane disturbance
- hemolytic activity (Mice red blood cells): neither hAP10 nor hAP10DR exhibited hemolytic activity
- cell viability / cell death of non-T cell population (non T-cells (CD3−)): did not induce cell death
- cell viability / cell death of non-tumoral CD4+ T-cells [3]: did not induce cell death
- secreted IL-6 [4]: no significant IL-6 release was detected

Substance: RSRSRRRRRKLQYFARGLQVYIRQLRLALQGKT [RT33DR]
- tolerability in vivo [5]: well tolerated in vivo
- cell viability / cell death of non-T cell population (non T-cells (CD3−)): neither peptide decreased cell viability
- cell viability / cell death of non-tumoral CD4+ T-cells [3]: neither peptide decreased cell viability
- cytotoxicity in presence of pan-caspase inhibitor zVAD-fmk (HUT78): did not block
- cell viability of normal cells (MRC-5): sparing the normal cells tested
- cell viability of normal cells (HaCat): sparing the normal cells tested

Substance: TAT
- cellular distribution of fluorescence (U2OS cells): both a diffuse and punctuate fluorescence distribution

Substance: lipopolysaccharide [LPS, reference compound]
- secreted IL-6 [4]: elicited a potent cytokine response
